Values of other authors in patent publication US9925167B2, “Agents for the control of parasites on animals” (Hansen-AB GmbH, priority 2011, dated 2018).

Assays:
hepatotoxic damage = conditions: orally administered; Aldana et al. 2001
paresthesias = conditions: humans
[1] = test system: fenvalerate-induced skin sensitizations; conditions: guinea pigs, Malley et al. 1985

Row | Compound | Effect on hepatotoxic damage after i.p. application of cypermethrin (hepatotoxic damage) | Effect on paresthesias triggered by cyano-pyrethroid active substances such as fenvalerate (paresthesias; Flannigan et al. 1985) | Effect of topical application in paresthesias after pyrethroid-induced damage (paresthesias; topical, Bradberry et al. 2005) | Effect of dermal pre-treatment on fenvalerate-induced skin sensitizations [1]
1 | CC(=O)Oc1c(C)c(C)c2c(c1C)CC[C@@](C)(CCC[C@H](C)CCC[C@H](C)CCCC(C)C)O2 [vitamin E acetate, Alpha-tocopheryl acetate] | positive effects | positive effects | positive effect | 
2 | vitamin E |  |  |  | reduction
